Results: article PMC9305623, “Next generation GLP-1/GIP/glucagon triple agonists normalize body weight in obese mice” (Molecular Metabolism, 2022)
*1 amine or outer side, *2 acyl side, *3 side chain or, on linkers, in order; H or OH if unused. Where a SMILES comes first, the peptide text is derived from it. Side-chain parts run from the residue outwards. [ ]: non-standard residue; d: D form. The star is where a group is joined. C20 diacid = O=C(O)CCCCCCCCCCCCCCCCCCC(=O)*; γGlu = O=C(O)[C@H](CCC(=O)[*:2])N[*:1]; εLys = N[C@@H](CCCCN[*:1])C(=O)[*:2]; AEEA = NCCOCCOCC(=O)O; Aib = CC(C)(N)C(=O)O

Key:
Assay in all cases: Receptor activation: cAMP production by CRE-luciferase reporter in stably transfected BHK cells
Assay type in all cases: cell-based
hGLP-1 Receptor = molecular target: T1, hGLP-1 Receptor (Homo sapiens, UniProt P43220); details: for hGLP-1 Receptor Relative Potency %: compared to the native ligand for the receptor
T1 construct: expressed in transfected cells; host or cells: baby hamster kidney (BHK) cells, stably transfected, with CRE-firefly luciferase reporter
T1 sequence (P43220 24-463): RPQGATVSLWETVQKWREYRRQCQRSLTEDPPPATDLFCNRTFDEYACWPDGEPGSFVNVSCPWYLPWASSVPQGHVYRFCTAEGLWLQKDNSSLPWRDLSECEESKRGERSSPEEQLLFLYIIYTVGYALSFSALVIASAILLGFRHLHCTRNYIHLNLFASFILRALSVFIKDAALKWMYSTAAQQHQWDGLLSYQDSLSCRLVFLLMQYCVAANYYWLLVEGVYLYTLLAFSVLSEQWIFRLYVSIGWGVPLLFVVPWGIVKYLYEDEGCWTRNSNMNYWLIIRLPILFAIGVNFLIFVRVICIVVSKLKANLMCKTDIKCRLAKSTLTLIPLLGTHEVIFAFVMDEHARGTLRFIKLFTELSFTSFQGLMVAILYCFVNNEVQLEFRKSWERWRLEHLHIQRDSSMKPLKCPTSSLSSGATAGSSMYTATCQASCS
Method: (§1) Cyclic AMP (cAMP) production was assessed as a proxy for receptor activation using stably transfected baby hamster kidney (BHK) cell lines expressing the DNA for one individual receptor (GLP-1R, GIPR, GcgR; human- or mouse-specific sequence) and the DNA for the firefly luciferase reporter gene linked to the cAMP response element (CRE). The cells were kept in continuous culture at 37 °C and 5% CO2 in Dulbecco's Modified Eagle Medium (DMEM) supplemented with 10% heat-inactivated fetal bovine serum (HI-FBS), 300 μg/mL hygromycin, and 500 μg/mL G418; for cell lines expressing GIPR, the G418 concentration was lowered to 400 μg/mL. Cells were plated in a 96-well poly-D-lysine-coated plate at 5,000 cells per well in growth media and incubated overnight at 37 °C with 5% CO2. After the overnight incubation, the media was removed, the plate was washed once in Dulbecco's phosphase-buffered saline (DPBS), and 50 μL of assay buffer (DMEM without phenol red, 10 mM HEPES, 1x Glutamax, 1% ovalbumin, 0.1% Pluronic F-68) was added to each well. […] Aliquots of the dilution curves were added to the cell plate in a volume of 50 μL per well resulting in final assay concentrations ranging from 1 × 10^−14 to 1 × 10^−7 M. The assay plate was incubated for 3 h at 37 °C and 5% CO2. After the incubation, the assay plate was washed once with DPBS. A 100 μL aliquot of DPBS was added to each well followed by 100 μL of steadylite plus reagent (PerkinElmer). The assay plate was covered to protect reagent from light, shaken at 250 rpm at room temperature for 30 min, and read in a microtiter plate reader. EC50 values were calculated using Prism software (GraphPad) with the nonlinear regression log(agonist) vs. response. A minimum of two replicates were measured for each sample.

hGIP Receptor = molecular target: T2, hGIP Receptor (Homo sapiens, UniProt P48546); details: for hGIP Receptor Relative Potency %: compared to the native ligand for the receptor
T2 construct: expressed in transfected cells; host or cells: baby hamster kidney (BHK) cells, stably transfected, with CRE-firefly luciferase reporter
T2 sequence (P48546 22-466): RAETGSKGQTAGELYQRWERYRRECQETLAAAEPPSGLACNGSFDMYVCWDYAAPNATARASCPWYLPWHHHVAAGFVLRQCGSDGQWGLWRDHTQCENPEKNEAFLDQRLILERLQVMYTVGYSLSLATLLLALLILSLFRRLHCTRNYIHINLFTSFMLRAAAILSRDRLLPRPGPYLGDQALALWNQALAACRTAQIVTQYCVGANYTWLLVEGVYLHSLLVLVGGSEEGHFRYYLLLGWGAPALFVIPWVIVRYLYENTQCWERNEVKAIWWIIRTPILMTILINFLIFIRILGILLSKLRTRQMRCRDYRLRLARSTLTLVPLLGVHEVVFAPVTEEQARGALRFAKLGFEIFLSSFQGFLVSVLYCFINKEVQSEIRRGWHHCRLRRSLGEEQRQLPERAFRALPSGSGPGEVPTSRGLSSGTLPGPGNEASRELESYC
Method: as §1

hGcg Receptor = molecular target: T3, hGcg Receptor (Homo sapiens, UniProt P47871); details: for hGcg Receptor Relative Potency %: compared to the native ligand for the receptor
T3 construct: expressed in transfected cells; host or cells: baby hamster kidney (BHK) cells, stably transfected, with CRE-firefly luciferase reporter
T3 sequence (P47871 26-477): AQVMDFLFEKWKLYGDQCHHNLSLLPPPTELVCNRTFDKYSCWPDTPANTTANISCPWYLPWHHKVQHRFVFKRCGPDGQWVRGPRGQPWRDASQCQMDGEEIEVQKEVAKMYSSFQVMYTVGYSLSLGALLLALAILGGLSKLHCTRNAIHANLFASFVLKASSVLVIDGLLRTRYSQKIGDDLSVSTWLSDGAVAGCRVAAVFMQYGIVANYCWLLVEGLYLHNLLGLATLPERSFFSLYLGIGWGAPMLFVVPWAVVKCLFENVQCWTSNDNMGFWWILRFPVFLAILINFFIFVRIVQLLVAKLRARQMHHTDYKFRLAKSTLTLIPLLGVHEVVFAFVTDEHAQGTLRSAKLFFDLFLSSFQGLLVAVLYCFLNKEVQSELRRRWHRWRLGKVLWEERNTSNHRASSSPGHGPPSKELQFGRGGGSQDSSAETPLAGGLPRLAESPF
Method: as §1

CC[C@H](C)[C@H](NC(=O)[C@H](CO)NC(=O)[C@H](Cc1ccc(O)cc1)NC(=O)[C@H](CC(=O)O)NC(=O)[C@H](CO)NC(=O)[C@@H](NC(=O)[C@H](Cc1ccccc1)NC(=O)[C@@H](NC(=O)CNC(=O)[C@H](CCC(N)=O)NC(=O)C(C)(C)NC(=O)[C@@H](N)Cc1c[nH]cn1)[C@@H](C)O)[C@@H](C)O)C(=O)N[C@@H](Cc1ccc(O)cc1)C(=O)N[C@@H](CC(C)C)C(=O)N[C@@H](CCC(=O)O)C(=O)N[C@@H](CCCCNC(=O)[C@@H](N)CCCCNC(=O)[C@@H](N)CCCCNC(=O)CC[C@H](NC(=O)CCCCCCCCCCCCCCCCCCC(=O)O)C(=O)O)C(=O)N[C@@H](CCC(N)=O)C(=O)N[C@@H](C)C(=O)N[C@@H](C)C(=O)NC(C)(C)C(=O)N[C@@H](CCC(=O)O)C(=O)N[C@@H](Cc1ccccc1)C(=O)N[C@H](C(=O)N[C@@H](CCC(N)=O)C(=O)N[C@@H](Cc1c[nH]c2ccccc12)C(=O)N[C@@H](CC(C)C)C(=O)N[C@@H](CC(C)C)C(=O)N[C@@H](CCC(=O)O)C(=O)NCC(=O)NCC(=O)N1CCC[C@H]1C(=O)N[C@@H](CO)C(=O)N[C@@H](CO)C(=O)NCC(=O)N[C@@H](C)C(=O)N1CCC[C@H]1C(=O)N1CCC[C@H]1C(=O)N1CCC[C@H]1C(=O)N[C@@H](CO)C(N)=O)C(C)C [Compound 12] (H-H[Aib]QGTFTSDYSIYLEK([εLys-εLys-γGlu-C20 diacid])QAA[Aib]EFVQWLLEGGPSSGAPPPS-NH2)
hGLP-1 Receptor Relative Potency % (hGLP-1 Receptor): 410% | hGIP Receptor Relative Potency % (hGIP Receptor): 19% | hGcg Receptor Relative Potency % (hGcg Receptor): 3%

CC[C@H](C)[C@H](NC(=O)[C@H](CO)NC(=O)[C@H](Cc1ccc(O)cc1)NC(=O)[C@H](CC(=O)O)NC(=O)[C@H](CO)NC(=O)[C@@H](NC(=O)[C@H](Cc1ccccc1)NC(=O)[C@@H](NC(=O)CNC(=O)[C@H](Cc1c[nH]cn1)NC(=O)C(C)(C)NC(=O)[C@@H](N)Cc1c[nH]cn1)[C@@H](C)O)[C@@H](C)O)C(=O)N[C@@H](Cc1ccc(O)cc1)C(=O)N[C@@H](CC(C)C)C(=O)N[C@@H](CCC(=O)O)C(=O)N[C@@H](CCCCNC(=O)[C@@H](N)CCCCNC(=O)[C@@H](N)CCCCNC(=O)CC[C@H](NC(=O)CCCCCCCCCCCCCCCCCCC(=O)O)C(=O)O)C(=O)N[C@@H](CCC(N)=O)C(=O)N[C@@H](Cc1ccc(O)cc1)C(=O)N[C@@H](C)C(=O)NC(C)(C)C(=O)N[C@@H](CCC(=O)O)C(=O)N[C@@H](Cc1ccccc1)C(=O)N[C@H](C(=O)N[C@@H](CCC(N)=O)C(=O)N[C@@H](Cc1c[nH]c2ccccc12)C(=O)N[C@@H](CC(C)C)C(=O)N[C@@H](CC(C)C)C(=O)N[C@@H](CCC(=O)O)C(=O)NCC(=O)NCC(=O)N1CCC[C@H]1C(=O)N[C@@H](CO)C(=O)N[C@@H](CO)C(=O)NCC(=O)N[C@@H](C)C(=O)N1CCC[C@H]1C(=O)N1CCC[C@H]1C(=O)N1CCC[C@H]1C(=O)N[C@@H](CO)C(N)=O)C(C)C [Compound 15] (H-H[Aib]HGTFTSDYSIYLEK([εLys-εLys-γGlu-C20 diacid])QYA[Aib]EFVQWLLEGGPSSGAPPPS-NH2)
hGLP-1 Receptor Relative Potency % (hGLP-1 Receptor): 101% | hGIP Receptor Relative Potency % (hGIP Receptor): 135% | hGcg Receptor Relative Potency % (hGcg Receptor): 72%

CC[C@H](C)[C@H](NC(=O)[C@H](CO)NC(=O)[C@H](Cc1ccc(O)cc1)NC(=O)[C@H](CC(=O)O)NC(=O)[C@H](CO)NC(=O)[C@@H](NC(=O)[C@H](Cc1ccccc1)NC(=O)[C@@H](NC(=O)CNC(=O)[C@H](Cc1c[nH]cn1)NC(=O)C(C)(C)NC(=O)[C@@H](N)Cc1ccc(O)cc1)[C@@H](C)O)[C@@H](C)O)C(=O)N[C@@H](Cc1ccc(O)cc1)C(=O)N[C@@H](CC(C)C)C(=O)N[C@@H](CCC(=O)O)C(=O)N[C@@H](CCCCNC(=O)[C@@H](N)CCCCNC(=O)[C@@H](N)CCCCNC(=O)CC[C@H](NC(=O)CCCCCCCCCCCCCCCCCCC(=O)O)C(=O)O)C(=O)N[C@@H](CCC(N)=O)C(=O)N[C@@H](C)C(=O)N[C@@H](C)C(=O)NC(C)(C)C(=O)N[C@@H](CCC(=O)O)C(=O)N[C@@H](Cc1ccccc1)C(=O)N[C@H](C(=O)N[C@@H](CCC(N)=O)C(=O)N[C@@H](Cc1c[nH]c2ccccc12)C(=O)N[C@@H](CC(C)C)C(=O)N[C@@H](CC(C)C)C(=O)N[C@@H](CCC(=O)O)C(=O)NCC(=O)NCC(=O)N1CCC[C@H]1C(=O)N[C@@H](CO)C(=O)N[C@@H](CO)C(=O)NCC(=O)N[C@@H](C)C(=O)N1CCC[C@H]1C(=O)N1CCC[C@H]1C(=O)N1CCC[C@H]1C(=O)N[C@@H](CO)C(N)=O)C(C)C [Compound 11] (H-Y[Aib]HGTFTSDYSIYLEK([εLys-εLys-γGlu-C20 diacid])QAA[Aib]EFVQWLLEGGPSSGAPPPS-NH2)
hGLP-1 Receptor Relative Potency % (hGLP-1 Receptor): 7% | hGIP Receptor Relative Potency % (hGIP Receptor): 147% | hGcg Receptor Relative Potency % (hGcg Receptor): 13%

CC[C@H](C)[C@H](NC(=O)[C@H](CO)NC(=O)[C@H](Cc1ccc(O)cc1)NC(=O)[C@H](CC(=O)O)NC(=O)[C@H](CO)NC(=O)[C@@H](NC(=O)[C@H](Cc1ccccc1)NC(=O)[C@@H](NC(=O)CNC(=O)[C@H](CCC(N)=O)NC(=O)C(C)(C)NC(=O)[C@@H](N)Cc1ccc(O)cc1)[C@@H](C)O)[C@@H](C)O)C(=O)N[C@@H](Cc1ccc(O)cc1)C(=O)N[C@@H](CC(C)C)C(=O)N[C@@H](CCC(=O)O)C(=O)N[C@@H](CCCCNC(=O)COCCOCCNC(=O)COCCOCCNC(=O)CC[C@H](NC(=O)CCCCCCCCCCCCCCCCCCC(=O)O)C(=O)O)C(=O)N[C@@H](CCC(N)=O)C(=O)N[C@@H](C)C(=O)N[C@@H](C)C(=O)NC(C)(C)C(=O)N[C@@H](CCC(=O)O)C(=O)N[C@@H](Cc1ccccc1)C(=O)N[C@H](C(=O)N[C@@H](CCC(N)=O)C(=O)N[C@@H](Cc1c[nH]c2ccccc12)C(=O)N[C@@H](CC(C)C)C(=O)N[C@@H](CC(C)C)C(=O)N[C@@H](CCC(=O)O)C(=O)NCC(=O)NCC(=O)N1CCC[C@H]1C(=O)N[C@@H](CO)C(=O)N[C@@H](CO)C(=O)NCC(=O)N[C@@H](C)C(=O)N1CCC[C@H]1C(=O)N1CCC[C@H]1C(=O)N1CCC[C@H]1C(=O)N[C@@H](CO)C(N)=O)C(C)C [Compound 9] (H-Y[Aib]QGTFTSDYSIYLEK([AEEA-AEEA-γGlu-C20 diacid])QAA[Aib]EFVQWLLEGGPSSGAPPPS-NH2)
EC50 (hGLP-1 Receptor; BHK cells expressing human GLP-1R and CRE-luciferase, 12-point curve, 3 h, 37 °C, assay buffer with 1% ovalbumin, minimum of two replicates): 0.0031 nM | hGLP-1 Receptor Relative Potency % (hGLP-1 Receptor): 220% | EC50 (hGIP Receptor; BHK cells expressing human GIPR and CRE-luciferase, 12-point curve, 3 h, 37 °C, assay buffer with 1% ovalbumin, minimum of two replicates): 0.0114 nM | hGIP Receptor Relative Potency % (hGIP Receptor): 92% | EC50 (hGcg Receptor; BHK cells expressing human GcgR and CRE-luciferase, 12-point curve, 3 h, 37 °C, assay buffer with 1% ovalbumin, minimum of two replicates): 0.185 nM | hGcg Receptor Relative Potency % (hGcg Receptor): 5%
